This note sets out measurements from US7772274B1, “Docetaxel formulations with lipoic acid” (Scidose, LLC, priority 2009, dated 2010).

Like-named read-outs stand apart in the source and are kept apart here.

This data set is described as follows: Solubility of docetaxel in various solvents. Format: physicochemical. Particulars: for solubility: read-out: Solubility of Docetaxel, Concentration. As for the experimental part: In consideration of the severe side effects associated with the use of polysorbates, such as TWEEN 80®, as solubilizers of docetaxel, solubility studies were conducted to determine non-toxic solvents that can effectively dissolve docetaxel.
Solubility of docetaxel was assessed using several different solvents that are well-tolerated in subjects, as well as polysorbates for comparison.

Regarding `CC(=O)O[C@@]12CO[C@@H]1C[C@H](O)[C@@]1(C)C(=O)[C@H](O)C3=C(C)[C@@H](OC(=O)[C@H](O)[C@@H](NC(=O)OC(C)(C)C)c4ccccc4)C[C@@](O)([C@@H](OC(=O)c4ccccc4)[C@H]21)C3(C)C` [Docetaxel, (2R,3S)—N-carboxy-3-phenylisoserine, N-tert-butyl ester, 13-ester with 5β-20-epoxy-1,2α,4,7β,10β,13α-hexahydroxytax-11-en-9-one 4-acetate 2-benzoate, trihydrate], the solubility (oil or lipid, solvent LABROFAC™ (Capric triglyceride PEG 4 ester Macrogol 200)) worked out at 35 mg/mL; the solubility (oil or lipid, solvent MAISINE™ 35-1 (Glycerol mono linoleate)) was found to be 10 mg/mL; the solubility (oil or lipid, solvent PECEOL® (Glycerol mono Oleate 40)) is 7 mg/mL; the solubility (organic solvent or mixture, solvent 1-lactic acid) is 6 mg/mL; the solubility (organic solvent or mixture, solvent 2% Lutrol in PEG 400) came to 15 mg/mL; the solubility (organic solvent or mixture, solvent 50% PEG 400/50% PG) came out at 15 mg/mL. Also, the solubility is, setting by setting: (organic solvent or mixture, solvent Acetic acid) 60 mg/mL; (organic solvent or mixture, solvent Benzyl alcohol) 90 mg/mL; (organic solvent or mixture, solvent Benzyl benzoate) 13 mg/mL; (organic solvent or mixture, solvent Ethanol) 120 mg/mL; (organic solvent or mixture, solvent Glycerol) 1.65 mg/mL; (organic solvent or mixture, solvent Glycofurol) 200 mg/mL. Moreover, the solubility reads like this: (organic solvent or mixture, solvent N-Methyl 2-Pyrrolidone) 17.6 mg/mL; (organic solvent or mixture, solvent PEG 400) 10 mg/mL; (organic solvent or mixture, solvent Propylene Glycol) 10 mg/mL; (organic solvent or mixture, solvent Span 80) 3.5 mg/mL; (organic solvent or mixture, solvent TPGS 1000) 50 mg/mL; (organic solvent or mixture, solvent TWEEN 20®) 90 mg/mL. In addition, where the note is “organic solvent or mixture, solvent TWEEN 80®”, the solubility is 60 mg/mL. The “Solubility of Docetaxel, Concentration” value (solvent Glycofurol) is recorded as “most soluble”.
